{
  "source": "patent US12030897B2",
  "about": "“Pyrrolo[2,1-f][1,2,4]triazine derivatives serving as selective HER2 inhibitors and application thereof” (MEDSHINE DISCOVERY INC., priority 2018, dated 2024)",
  "key": {"BT-474 cell": {"tested_on": "BT-474 cell", "experiment": "Cell proliferation inhibitory activity, Cell-Titer-Glo, BT-474", "assay_type": "cell-based", "details": "Homo sapiens, BT-474, 72 h; 3 days incubation", "description": "Experiment object: to detect the inhibitory activity of the tested compound on cell proliferation.\nExperimental principle: the luciferase in the Cell-Titer-Glo reagent uses luciferin, oxygen and ATP as reaction substrates to produce oxyluciferin and release energy in the form of light. Since the luciferase reaction requires ATP, the total amount of light produced by the reaction is proportional to the total amount of ATP that reflects cell viability.\nExperimental Materials: • cell lines: NCI-N87 cell line (ATCC-CRL-5822); BT-474 cell line (ATCC-HTB-20) • Cell culture medium: RPMI 1640 medium (Invitrogen #22400-105; 10% serum Invitrogen #10090148; L-glutamine 1×, Gibco #25030-081; double antibody Hyclone #SV30010) • CellTiter-Glo® luminescence cell viability detection kit (Promega #G7573) • 384-well cell culture plate (Greiner #781090) • Compound plate (LABCYTE #LP-0200) • CO2 incubator (Thermo #371) • Vi-cell cell counter (Beckman Coulter) • Pipette (Eppendorf) • Pipette (Greiner) • Pipetting gun (Eppendorf) • Multifunctional microplate reader (Envision Reader) • ECHO Liquid-handling workstation (Labcyte-ECHO555)\nThe cells were inoculated in a 384-well plate with a density of 1000 cells per well and 25 μL per well. The edge wells were not inoculated with cells, and was supplemented with 25 μL of phosphate buffer.\nThe compound was added to the plate with 9 μL per well.\n(2) The compound was diluted with ECHO liquid-handling workstation, and each well of the cell plate was added with 125 nL of compound. Each well of the cell wells of columns 2 and 23 was added with 125 nL of DMSO, and each well of the Media wells of columns 1 and 24 was added with 125 nL of DMSO.\n(3) Each well of the cell plate was supplemented with 25 μL of culture medium, and the final volume in each well of the cell plate was 50 μL. The concentration of the compound was 10 μM, which was subjected to 3 fold dilution to obtain 10 concentrations. Each concentration was duplicated in left and right wells, and the final DMSO concentration was 0.25%.\n2.3 After adding the compound, it was centrifuged at 1000 rpm for 1 min. The cell plate was placed in a 37° C., 5% CO2 incubator for 3 days.\nThe cell plate was taken from the incubator and equilibrated at room temperature for 30 min. 25 μL of Cell-Titer-Glo reagent was added to each well, shaken for 1 min to make it thoroughly mixed, and centrifuged at 1000 rpm for 1 min. After 10 min, the plate was read on PerkinElmer Envision, and the […] reading time was set to 0.2 seconds."}, "CYP3A4": {"target": "CYP3A4 (Homo sapiens (Human), UniProt P08684)", "sequence (P08684 whole entry)": "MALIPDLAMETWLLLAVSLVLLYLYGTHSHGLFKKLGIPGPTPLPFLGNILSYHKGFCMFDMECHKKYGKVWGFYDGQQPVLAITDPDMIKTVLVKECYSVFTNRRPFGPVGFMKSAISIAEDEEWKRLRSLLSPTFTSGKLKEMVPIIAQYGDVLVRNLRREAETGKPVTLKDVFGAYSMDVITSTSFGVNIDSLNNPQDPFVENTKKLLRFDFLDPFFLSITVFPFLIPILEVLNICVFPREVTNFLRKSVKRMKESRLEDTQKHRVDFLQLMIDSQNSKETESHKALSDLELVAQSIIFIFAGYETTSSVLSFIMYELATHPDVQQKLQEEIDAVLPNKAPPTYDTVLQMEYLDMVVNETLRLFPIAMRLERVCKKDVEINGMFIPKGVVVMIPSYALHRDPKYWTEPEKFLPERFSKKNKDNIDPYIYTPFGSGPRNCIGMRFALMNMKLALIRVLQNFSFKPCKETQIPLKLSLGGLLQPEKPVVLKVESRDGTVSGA", "experiment": "Inhibition of human liver microsomal cytochrome P450 isoenzyme CYP3A4", "assay_type": "in vitro ADME", "details": "human liver microsomes", "method": "(§1) The object of this study was to evaluate the effect of Example 4 on the activities of five isoenzymes (CYP1A2, CYP2C9, CYP2C19, CYP2D6 and CYP3A4) of human liver microsomal cytochrome P450 (CYP) using an in vitro test system. The specific probe substrates of CYP450 isozymes were incubated with human liver microsomes and different concentrations of Example 4, and reduced nicotinamide adenine dinucleotide phosphate (NADPH) was added to initiate the reaction. After the reaction was completed, the samples were treated, and liquid chromatography tandem mass spectrometry (LC/MS/MS) was used to detect the metabolites produced by specific substrates."}, "HER4 (ErbB4)": {"target": "HER4 (ErbB4) (Homo sapiens (Human), UniProt Q15303)", "sequence (Q15303 26-1308)": "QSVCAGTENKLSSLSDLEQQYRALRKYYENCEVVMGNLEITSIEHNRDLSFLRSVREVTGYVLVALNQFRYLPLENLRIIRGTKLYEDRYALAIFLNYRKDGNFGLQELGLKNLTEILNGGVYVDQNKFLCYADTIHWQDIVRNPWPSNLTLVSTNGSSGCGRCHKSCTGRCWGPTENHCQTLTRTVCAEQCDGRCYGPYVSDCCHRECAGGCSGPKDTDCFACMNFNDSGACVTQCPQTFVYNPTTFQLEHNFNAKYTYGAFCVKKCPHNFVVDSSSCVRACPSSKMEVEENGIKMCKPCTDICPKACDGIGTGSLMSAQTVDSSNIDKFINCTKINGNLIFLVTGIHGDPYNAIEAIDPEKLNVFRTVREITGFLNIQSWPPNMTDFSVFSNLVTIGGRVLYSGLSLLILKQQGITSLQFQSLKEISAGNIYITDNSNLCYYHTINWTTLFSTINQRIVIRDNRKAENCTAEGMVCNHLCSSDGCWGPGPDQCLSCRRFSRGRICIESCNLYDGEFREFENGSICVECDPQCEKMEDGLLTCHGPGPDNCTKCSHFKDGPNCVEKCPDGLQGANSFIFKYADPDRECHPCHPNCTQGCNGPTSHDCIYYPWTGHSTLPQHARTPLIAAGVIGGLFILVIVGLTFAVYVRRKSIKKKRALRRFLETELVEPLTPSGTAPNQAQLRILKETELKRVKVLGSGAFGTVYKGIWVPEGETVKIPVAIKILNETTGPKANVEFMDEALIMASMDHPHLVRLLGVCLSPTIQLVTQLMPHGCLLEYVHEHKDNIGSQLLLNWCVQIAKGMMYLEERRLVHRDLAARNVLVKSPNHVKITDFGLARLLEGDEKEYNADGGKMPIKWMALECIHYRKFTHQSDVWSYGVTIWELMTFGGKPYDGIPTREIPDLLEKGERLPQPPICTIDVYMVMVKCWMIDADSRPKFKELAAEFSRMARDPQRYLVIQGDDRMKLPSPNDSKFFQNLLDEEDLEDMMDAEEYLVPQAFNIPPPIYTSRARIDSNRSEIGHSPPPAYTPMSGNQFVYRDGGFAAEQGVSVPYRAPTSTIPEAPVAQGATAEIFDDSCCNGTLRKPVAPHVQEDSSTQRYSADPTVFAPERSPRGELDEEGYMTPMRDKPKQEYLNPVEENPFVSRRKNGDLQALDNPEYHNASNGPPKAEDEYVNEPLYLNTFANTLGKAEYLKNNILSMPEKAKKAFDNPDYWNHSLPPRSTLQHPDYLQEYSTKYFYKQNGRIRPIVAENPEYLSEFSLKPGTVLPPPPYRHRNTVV", "experiment": "In vitro enzyme activity, HER4 (ErbB4), [γ-33P]ATP filter assay", "assay_type": "biochemical", "method": "The object of this test is to detect the in vitro inhibitory activity of the compound against HER1 (ErbB1), HER2 (ErbB2) and HER4 (ErbB4). The enzymes used in this test were human ErbB1, ErbB2 and ErbB4. Eurofins Pharma Discovery Service provided the activity detection method, and the results of the inhibitory activity of the tested compound against HER1, HER2 and HER4 were shown in Table 1.\nExperimental Steps and Methods (96-Well Plate):\n5-fold diluted tested compound buffer (5 μL), peptide substrate poly(Glu, Tyr) (4:1) (2.5 μL), ErbB (4-20 ng, 2.5 μL), MnCl2 (50 mM, 1.25 μL), dH2O (3.75 μL) and [γ-^33P]ATP (10 μL) were added, and incubated at 30° C. for 10 min. 3% phosphoric acid was added to terminate the reaction, and 10 μL of the specimen was transferred to Filtermate A. The filter was washed with 75 mM phosphoric acid for three times and methanol once, and transferred to a sealed plastic bag, and a scintillation fluid mixture (4 mL) was added, The intensity of the emitted photons was detected on the scintillation luminescence counter. The photon intensity of the enzyme sample was compared with the photon intensity of the internal control sample, and the level of photon intensity reflected the strength of the tyrosine kinase activity."}, "CYP2C9": {"target": "CYP2C9 (Homo sapiens (Human), UniProt P11712)", "sequence (P11712 whole entry)": "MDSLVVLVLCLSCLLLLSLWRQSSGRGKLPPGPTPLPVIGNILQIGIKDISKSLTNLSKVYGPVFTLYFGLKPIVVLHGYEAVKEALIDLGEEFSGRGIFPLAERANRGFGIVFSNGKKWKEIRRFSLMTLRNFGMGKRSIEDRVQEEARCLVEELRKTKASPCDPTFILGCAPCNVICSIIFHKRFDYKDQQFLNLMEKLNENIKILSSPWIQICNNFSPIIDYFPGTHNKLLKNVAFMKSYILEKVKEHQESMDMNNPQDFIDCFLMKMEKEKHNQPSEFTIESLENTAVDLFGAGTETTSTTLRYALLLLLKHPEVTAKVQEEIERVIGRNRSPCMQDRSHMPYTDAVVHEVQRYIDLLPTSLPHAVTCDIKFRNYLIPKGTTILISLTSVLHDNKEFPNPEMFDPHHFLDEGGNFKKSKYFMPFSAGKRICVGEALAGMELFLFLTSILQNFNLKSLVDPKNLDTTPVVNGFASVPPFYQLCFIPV", "experiment": "Inhibition of human liver microsomal cytochrome P450 isoenzyme CYP2C9", "assay_type": "in vitro ADME", "details": "human liver microsomes", "method": "as §1"}, "[1]": {"experiment": "Pharmacokinetic properties in mice", "assay_type": "in vivo", "details": "female, Balb/c; for clearance / Vd / bioavailability: plasma, mouse; for Vd: read-out: Vdss; for bioavailability: read-out: F (bioavailability); for AUC(0-inf) / AUC(0-t) / half-life / Cmax: mouse plasma", "method": "The tested compound was dissolved in 10% DMSO/45% PEG400/45% water, vortexed and sonicated to prepare a clear solution with the corresponding concentration, which was filtered through a millipore filter for use. 18 to 20 grams of Balb/c female mice were selected, and the candidate compound solution was administered intravenously at a dose of 1 or 2 mg/kg. The tested compound was dissolved in 10% NMP/10% polyethylene glycol-15-hydroxystearate/80% water, vortexed and sonicated to prepare a clear solution with the corresponding concentration, which was filtered through a millipore filter for use. 18 to 20 grams of Balb/c female mice were selected, and the candidate compound solution was administered orally at a dose of 2 or 10 mg/kg. The whole-blood for a certain period of time was collected to prepare plasma. The drug concentration was analyzed by the LC-MS/MS method, and the pharmacokinetic parameters were calculated by the Phoenix WinNonlin software (Pharsight, USA)."}, "CYP2C19": {"target": "CYP2C19 (Homo sapiens (Human), UniProt P33261)", "sequence (P33261 whole entry)": "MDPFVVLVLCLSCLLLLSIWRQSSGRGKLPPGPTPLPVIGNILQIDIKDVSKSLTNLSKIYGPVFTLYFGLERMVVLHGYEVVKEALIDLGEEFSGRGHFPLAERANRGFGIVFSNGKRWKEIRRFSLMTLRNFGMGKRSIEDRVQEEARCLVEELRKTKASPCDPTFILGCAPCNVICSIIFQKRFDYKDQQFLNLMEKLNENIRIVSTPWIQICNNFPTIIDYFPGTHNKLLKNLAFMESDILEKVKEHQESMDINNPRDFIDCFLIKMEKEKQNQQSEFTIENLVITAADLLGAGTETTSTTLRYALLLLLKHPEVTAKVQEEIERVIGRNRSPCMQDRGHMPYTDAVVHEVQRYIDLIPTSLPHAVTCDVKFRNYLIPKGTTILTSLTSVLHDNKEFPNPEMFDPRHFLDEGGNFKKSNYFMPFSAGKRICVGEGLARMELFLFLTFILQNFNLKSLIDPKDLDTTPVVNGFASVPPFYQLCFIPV", "experiment": "Inhibition of human liver microsomal cytochrome P450 isoenzyme CYP2C19", "assay_type": "in vitro ADME", "details": "human liver microsomes", "method": "as §1"}},
  "note": "Read-outs that look alike come from different tables or passages of the source.",
  "data": [
    {"smiles": "Cc1cc(Nc2ncnn3ccc(CN4CCC(N)CC4)c23)ccc1Oc1ccn2ncnc2c1", "note": "[Example 4]", "values": [
      {"measurement": "IC50", "setting": "BT-474 cell", "value": 0.023, "unit": "µM"},
      {"measurement": "IC50", "setting": "CYP3A4", "value": 32.4, "unit": "µM"},
      {"measurement": "IC50", "setting": "HER4 (ErbB4)", "value": 0.156, "unit": "µM"},
      {"measurement": "IC50", "setting": "CYP2C9", "value": "> 50", "unit": "µM"},
      {"measurement": "clearance", "setting": "[1]; IV 1 mg/kg", "value": 19.2, "unit": "mL/min/kg"},
      {"measurement": "Vd", "setting": "[1]; IV 1 mg/kg", "value": 2.3, "unit": "L/kg"},
      {"measurement": "clearance", "setting": "[1]; IV 2 mg/kg", "value": 33, "unit": "mL/min/kg"},
      {"measurement": "Vd", "setting": "[1]; IV 2 mg/kg", "value": 2.81, "unit": "L/kg"},
      {"measurement": "bioavailability", "setting": "[1]; PO 2 mg/kg", "value": 22.7, "unit": "%"},
      {"measurement": "bioavailability", "setting": "[1]; PO 10 mg/kg", "value": 40.2, "unit": "%"},
      {"measurement": "AUC(0-inf)", "setting": "[1]; IV 1 mg/kg", "value": 1.57, "unit": "µM·h"},
      {"measurement": "AUC(0-t)", "setting": "[1]; IV 1 mg/kg", "value": 1.52, "unit": "µM·h"},
      {"measurement": "half-life", "setting": "[1]; IV 1 mg/kg", "value": 1.65, "unit": "h"},
      {"measurement": "AUC(0-inf)", "setting": "[1]; IV 2 mg/kg", "value": 2.15, "unit": "µM·h"},
      {"measurement": "AUC(0-t)", "setting": "[1]; IV 2 mg/kg", "value": 2.13, "unit": "µM·h"},
      {"measurement": "half-life", "setting": "[1]; IV 2 mg/kg", "value": 1.34, "unit": "h"},
      {"measurement": "AUC(0-inf)", "setting": "[1]; PO 2 mg/kg", "value": 0.95, "unit": "µM·h"},
      {"measurement": "AUC(0-t)", "setting": "[1]; PO 2 mg/kg", "value": 0.928, "unit": "µM·h"},
      {"measurement": "Cmax", "setting": "[1]; PO 2 mg/kg", "value": 306, "unit": "nM"},
      {"measurement": "half-life", "setting": "[1]; PO 2 mg/kg", "value": 1.37, "unit": "h"},
      {"measurement": "AUC(0-inf)", "setting": "[1]; PO 10 mg/kg", "value": 4.33, "unit": "µM·h"},
      {"measurement": "AUC(0-t)", "setting": "[1]; PO 10 mg/kg", "value": 4.28, "unit": "µM·h"},
      {"measurement": "Cmax", "setting": "[1]; PO 10 mg/kg", "value": 1250, "unit": "nM"},
      {"measurement": "half-life", "setting": "[1]; PO 10 mg/kg", "value": 1.08, "unit": "h"},
      {"measurement": "IC50", "setting": "CYP2C19", "value": 36.1, "unit": "µM"}
    ]}
  ]
}
